Source: patent US9758527B2, “Cyclohexene derivative, preparation method therefor, and pharmaceutical composition for preventing or treating metabolic diseases, containing same as active ingredient” (HYUNDAI PHARM CO., LTD., priority 2014, dated 2017)
Where two headings read alike, the source gives them in different places.

Target: T1, G protein-coupled receptor 119 (GPR-119) (Mesocricetus auratus, UniProt A0A1U8CD06)
T1 construct: hamster-derived β-cells containing G protein-coupled receptor 119 (GPR-119), HIT-T15 cells; host or cells: HIT-T15 (hamster pancreatic β-cells)
T1 sequence (A0A1U8CD06 1-334): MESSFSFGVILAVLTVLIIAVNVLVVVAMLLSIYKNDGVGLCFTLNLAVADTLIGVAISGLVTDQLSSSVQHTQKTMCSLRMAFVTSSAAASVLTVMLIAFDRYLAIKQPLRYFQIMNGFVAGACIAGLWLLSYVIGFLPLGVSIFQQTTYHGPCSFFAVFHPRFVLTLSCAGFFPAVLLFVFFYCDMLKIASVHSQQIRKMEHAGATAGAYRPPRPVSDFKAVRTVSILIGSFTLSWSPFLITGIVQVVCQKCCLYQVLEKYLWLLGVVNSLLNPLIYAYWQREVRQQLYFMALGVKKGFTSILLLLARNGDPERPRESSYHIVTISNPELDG
Experiment: Evaluation of cAMP activity in HIT-T15 cells (HTRF cAMP dynamic kit)
Assay type: cell-based, hamster
Conditions: cAMP activation
In short: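 HIT-T15 cells, 60,000/well, treated next day with compound at six concentrations ([…]) for 1 h at 37° C. Lysate cAMP quantified by HTRF competitive immunoassay (D2-cAMP, cryptate anti-cAMP); activity taken as change in FRET signal relative to DMSO.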

[1] = 1 h at 37° C., six concentrations, read-out: EC50

Compound	EC50 [1] [nM]	EC50 (read-out: EC50 value) [nM]
CC(C)c1noc(N2CCC(COc3ccc(C4=CCC(C(=O)N[C@@H](C)CO)CC4)cc3F)CC2)n1 (stereo partly drawn) [Example 83, 4-(3-fluoro-4-((1-(3-isopropyl-1,2,4-oxadiazol-5-yl)piperidin-4-yl)methoxy)phenyl)-N-((S)-1-hydroxypropan-2-yl)cyclohex-3-enecarboxamide]	75	
CC(C)(C)OC(=O)N1CCC(COc2ccc(C3=CCC(C(=O)N4CCC(O)CC4)CC3)cc2)CC1 (stereo not shown) [Example 225, tert-butyl 4-((4-(4-(4-hydroxypiperidine-1-carbonyl)cyclohex-1-enyl)phenoxy)methyl)piperidine-1-carboxylate]	22	≤ 50
CC(C)(C)OC(=O)N1CCC(COc2ccc(C3=CCC(C(=O)NC(CO)CO)CC3)cn2)CC1 (stereo not shown) [Example 68, tert-butyl 4-((5-(4-(1,3-dihydroxypropan-2-ylcarbamoyl)cyclohex-1-enyl)pyridin-2-yloxy)methyl)piperidine-1-carboxylate]	300	
CCc1cnc(N2CCC(COc3ccc(C4=CCC(C(=O)N5C/C(=N\OC)C(CO)(CO)C5)CC4)cc3)CC2)nc1 (stereo not shown) [Example 253, (Z)-(3,3-bis(hydroxymethyl)-4-(methoxyimino)pyrrolidin-1-yl)(4-(4-((1-(5-ethylpyrimidin-2-yl)piperidin-4-yl)methoxy)phenyl)cyclohex-3-enyl)methanone]	9	
CC(C)c1noc(N2CCC(COc3ccc(C4=CCC(C(=O)NC[C@H](O)CO)CC4)nc3)CC2)n1 (stereo partly drawn) [Example 41, N-((S)-2,3-dihydroxypropyl)-4-(5-((1-(3-isopropyl-1,2,4-oxadiazol-5-yl)piperidin-4-yl)methoxy)pyridin-2-yl)cyclohex-3-enecarboxamide]	650	
CCN1CCN(C(=O)C2CC=C(c3ccc(OCC4CCN(c5nc(C(C)C)no5)CC4)cc3)CC2)CC1 (stereo not shown) [Example 79, (4-ethylpiperazin-1-yl)(4-(4-((1-(3-isopropyl-1,2,4-oxadiazol-5-yl)piperidin-4-yl)methoxy)phenyl)cyclohex-3-enyl)methanone]	49	≤ 50
CC(C)c1noc(N2CCC(COc3ccc(C4=CCC(C(=O)N(C)CCCO)CC4)cc3)CC2)n1 (stereo not shown) [Example 243, N-(3-hydroxypropyl)-4-(4-((1-(3-isopropyl-1,2,4-oxadiazol-5-yl)piperidin-4-yl)methoxy)phenyl)-N-methylcyclohex-3-enecarboxamide]	30	≤ 50
CCc1cnc(N2CCC(COc3ccc(C4=CCC(C(=O)N5CCC(=O)C5)CC4)cc3)CC2)nc1 (stereo not shown) [Example 250, 1-(4-(4-((1-(5-ethylpyrimidin-2-yl)piperidin-4-yl)methoxy)phenyl)cyclohex-3-enecarbonyl)pyrrolidin-3-one]	12	≤ 50
CC(C)c1noc(N2CCC(COc3ccc(C4=CCC(C(=O)N5CCC[C@@H]5C(N)=O)CC4)cc3F)CC2)n1 (stereo partly drawn) [Example 116, (2R)-1-(4-(3-fluoro-4-((1-(3-isopropyl-1,2,4-oxadiazol-5-yl)piperidin-4-yl)methoxy)phenyl)cyclohex-3-enecarbonyl)pyrrolidine-2-carboxamide]	28	≤ 50
CC(C)c1noc(N2CCC(COc3ccc(C4=CCC(C(=O)N[C@H](C)CO)CC4)cc3F)CC2)n1 (stereo partly drawn) [Example 84, 4-(3-fluoro-4-((1-(3-isopropyl-1,2,4-oxadiazol-5-yl)piperidin-4-yl)methoxy)phenyl)-N-((R)-1-hydroxypropan-2-yl)cyclohex-3-enecarboxamide]	30	≤ 50
CC(C)c1noc(N2CCC(COc3ccc(C4=CCC(C(=O)N5CCOCC5)CC4)cc3)CC2)n1 (stereo not shown) [Example 66, (4-(4-((1-(3-isopropyl-1,2,4-oxadiazol-5-yl)piperidin-4-yl)methoxy)phenyl)cyclohex-3-enyl)(morpholino)methanone]	18	≤ 50
CC(C)(C)OC(=O)N1CCC(COc2ccc(C3=CCC(C(=O)N4CCC(=NO)CC4)CC3)cc2)CC1 (stereo not shown) [Example 271, tert-butyl 4-((4-(4-(4-(hydroxyimino)piperidine-1-carbonyl)cyclohex-1-enyl)phenoxy)methyl)piperidine-1-carboxylate]	13	≤ 50
CCc1cnc(N2CCC(COc3ccc(C4=CCC(C(=O)NCC(F)F)CC4)cc3)CC2)nc1 (stereo not shown) [Example 50, N-(2,2-difluoroethyl)-4-(4-((1-(5-ethylpyrimidin-2-yl)piperidin-4-yl)methoxy)phenyl)cyclohex-3-enecarboxamide]	95	
CCc1cnc(N2CCC(COc3ccc(C4=CCC(C(=O)N5CCCCC5)CC4)cc3)CC2)nc1 (stereo not shown) [Example 163, (4-(4-((1-(5-ethylpyrimidin-2-yl)piperidin-4-yl)methoxy)phenyl)cyclohex-3-enyl)(piperidin-1-yl)methanone]	7	≤ 50
CC(C)c1noc(N2CCC(COc3ccc(C4=CCC(C(=O)NCC(F)F)CC4)nc3)CC2)n1 (stereo not shown) [Example 99, N-(2,2-difluoroethyl)-4-(5-((1-(3-isopropyl-1,2,4-oxadiazol-5-yl)piperidin-4-yl)methoxy)pyridin-2-yl)cyclohex-3-enecarboxamide]	160	
C[C@@H](CO)NC(=O)C1CC=C(c2ccc(OCC3CCN(C(=O)OC(C)(C)C)CC3)cc2F)CC1 (stereo partly drawn) [Example 130, tert-butyl 4-((3-fluoro-4-(4-((S)-1-hydroxypropan-2-ylcarbamoyl)cyclohex-1-enyl)phenoxy)methyl)piperidine-1-carboxylate]	90	
C[C@H](O)CNC(=O)C1CC=C(c2ccc(OCC3CCN(C(=O)OC(C)(C)C)CC3)cc2F)CC1 (stereo partly drawn) [Example 125, tert-butyl 4-((3-fluoro-4-(4-((S)-2-hydroxypropylcarbamoyl)cyclohex-1-enyl)phenoxy)methyl)piperidine-1-carboxylate]	70	
CCc1cnc(N2CCC(COc3ccc(C4=CCC(C(=O)N5CCC6(C=Cc7ccccc76)CC5)CC4)cc3)CC2)nc1 (stereo not shown) [Example 228, (4-(4-((1-(5-ethylpyrimidin-2-yl)piperidin-4-yl)methoxy)phenyl)cyclohex-3-enyl)(spiro[indene-1,4′-piperidin]-1′-yl)methanone]	8	≤ 50
CC(C)(C)OC(=O)N1CCC(COc2ccc(C3=CCC(C(=O)NC[C@H](O)CO)CC3)cn2)CC1 (stereo partly drawn) [Example 33, tert-butyl 4-((5-(4-((S)-2,3-dihydroxypropylcarbamoyl)cyclohex-1-enyl)pyridin-2-yloxy)methyl)piperidine-1-carboxylate]	600	
CC(C)(C)OC(=O)N1CCC(COc2ccc(C3=CCC(C(=O)N4CC[C@H](O)C4)CC3)cc2F)CC1 (stereo partly drawn) [Example 44, tert-butyl 4-((2-fluoro-4-(4-((S)-3-hydroxypyrrolidine-1-carbonyl)cyclohex-1-enyl)phenoxy)methyl)piperidine-1-carboxylate]	13	≤ 50
CC(C)c1noc(N2CCC(COc3ccc(C4=CCC(C(=O)N5CC[C@H](F)C5)CC4)cc3F)CC2)n1 (stereo partly drawn) [Example 95, (4-(3-fluoro-4-((1-(3-isopropyl-1,2,4-oxadiazol-5-yl)piperidin-4-yl)methoxy)phenyl)cyclohex-3-enyl)((S)-3-fluoropyrrolidin-1-yl)methanone]	16	
CCc1cnc(N2CCC(COc3ccc(C4=CCC(C(=O)N5C/C(=N\OC)C6(CN(C(=O)OC(C)(C)C)C6)C5)CC4)cc3)CC2)nc1 (stereo not shown) [Example 254, (Z)-tert-butyl 6-(4-(4-((1-(5-ethylpyrimidin-2-yl)piperidin-4-yl)methoxy)phenyl)cyclohex-3-enecarbonyl)-8-(methoxyimino)-2,6-diazaspiro[3.4]octane-2-carboxylate]	10	≤ 50
CC(C)c1noc(N2CCC(COc3ccc(C4=CCC(C(=O)NCCC(=O)O)CC4)cc3F)CC2)n1 (stereo not shown) [Example 111, 3-(4-(3-fluoro-4-((1-(3-isopropyl-1,2,4-oxadiazol-5-yl)piperidin-4-yl)methoxy)phenyl)cyclohex-3-enecarboxamido)propanoic acid]	1500	
C[C@H](O)CNC(=O)C1CC=C(c2ccc(OCC3CCN(C(=O)OC(C)(C)C)CC3)nc2)CC1 (stereo partly drawn) [Example 26, tert-butyl 4-((5-(4-((S)-2-hydroxypropylcarbamoyl)cyclohex-1-enyl)pyridin-2-yloxy)methyl)piperidine-1-carboxylate]	250	
CC(C)c1noc(N2CCC(COc3ccc(C4=CCC(C(=O)NC[C@@H](O)CO)CC4)cc3)CC2)n1 (stereo partly drawn) [Example 17, N-((R)-2,3-dihydroxypropyl)-4-(4-((1-(3-isopropyl-1,2,4-oxadiazol-5-yl)piperidin-4-yl)methoxy)phenyl)cyclohex-3-enecarboxamide]	85	
C[C@@H](O)CNC(=O)C1CC=C(c2ccc(OCC3CCN(C(=O)OC(C)(C)C)CC3)nc2)CC1 (stereo partly drawn) [Example 27, tert-butyl 4-((5-(4-((R)-2-hydroxypropylcarbamoyl)cyclohex-1-enyl)pyridin-2-yloxy)methyl)piperidine-1-carboxylate]	310	
CCc1cnc(N2CCC(COc3ccc(C4=CCC(C(=O)N(CC)CCO)CC4)cc3)CC2)nc1 (stereo not shown) [Example 175, N-ethyl-4-(4-((1-(5-ethylpyrimidin-2-yl)piperidin-4-yl)methoxy)phenyl)-N-(2-hydroxyethyl)cyclohex-3-enecarboxamide]	7	≤ 50
